Results as given in paper PMC12169614, “Exploring Long Arm Amide-Linked Side Chains in the Design of Antifungal Azole Inhibitors of Sterol 14α-Demethylase (CYP51)” (Journal of Medicinal Chemistry, 2025).

Assays:
Y525 OE CaMDR1a = assay: MIC80 determination, strain Y525; assay type: cell-based, S. cerevisiae; details: Saccharomyces cerevisiae, 48 h, pH 6.8
Procedure: (§1) Cells were seeded at an OD600 nm of 0.005 (1.5 × 10^4 CFU), and the plates were incubated at 30 °C with shaking at 200 rpm for 48 h for S. cerevisiae strains and 24 h for C. albicans . Cell growth was assessed by measuring the OD600 nm using a Synergy 2 multimode plate reader (BioTek Instruments, VT, USA). Each MIC80 was determined using triplicate measurements for pools of 4 clones of each strain in three separate experiments.

Y2716 OE CpCYP51 Y132F = assay: MIC80 determination, strain Y2716; assay type: cell-based, S. cerevisiae; details: Saccharomyces cerevisiae
Procedure: as §1

[1] = tested on: Y2747 OE AfCYP51B AfCPR AfERG6; assay: MIC80 determination, strain Y2747; assay type: cell-based, S. cerevisiae; details: Saccharomyces cerevisiae
Procedure: as §1

Y2768 OE CauCYP51 Y132F = assay: MIC80 determination, strain Y2768; assay type: cell-based, S. cerevisiae; details: Saccharomyces cerevisiae
Procedure: as §1

Y2459 OE CaCYP51 CaCpr = assay: MIC80 determination, strain Y2459; assay type: cell-based, S. cerevisiae; details: Saccharomyces cerevisiae, 48 h, pH 6.8
Procedure: as §1

Y2651 OE CYP51 F5 RaCPR = assay: MIC80 determination, strain Y2651; assay type: cell-based, S. cerevisiae; details: Saccharomyces cerevisiae
Procedure: as §1

CaCYP51 Y132F = CaCYP51 Y132F (Candida albicans, UniProt P10613, Y132F); details: footnote b; ref number not given; cited from earlier work
Y2766 OE CauCDR1 = assay: MIC80 determination, strain Y2766; assay type: cell-based, S. cerevisiae; details: Saccharomyces cerevisiae
Procedure: as §1

Y2301 OE ScCYP51 Y140F = assay: MIC80 determination, strain Y2301; assay type: cell-based, S. cerevisiae; details: Saccharomyces cerevisiae, 48 h, pH 6.8
Procedure: as §1

Y2767 OE CauCYP51 = assay: MIC80 determination, strain Y2767; assay type: cell-based, S. cerevisiae; details: Saccharomyces cerevisiae
Procedure: as §1

Y2649 OE CYP51 F1 RaCPR = assay: MIC80 determination, strain Y2649; assay type: cell-based, S. cerevisiae; details: Saccharomyces cerevisiae
Procedure: as §1

Y2374 OE CgCYP51 = assay: MIC80 determination, strain Y2374; assay type: cell-based, S. cerevisiae; details: Saccharomyces cerevisiae
Procedure: as §1

Y2300 OE ScCYP51 = assay: MIC80 determination, strain Y2300; assay type: cell-based, S. cerevisiae; details: Saccharomyces cerevisiae, 48 h, pH 6.8
Procedure: as §1

Y611 FHB3 = assay: MIC80 determination, C. albicans clinical isolate Y611 FHB3; assay type: cell-based; details: Candida albicans, 24 h, pH 7
Procedure: as §1

Y2411 Endog. ScCYP51 = assay: MIC80 determination, strain Y2411; assay type: cell-based, S. cerevisiae; details: Saccharomyces cerevisiae; strain Y2411 Endog. ScCYP51; SD pH 6.8, 30 °C, 48 h
Procedure: as §1

Y2721 OE CpCYP51 = assay: MIC80 determination, strain Y2721; assay type: cell-based, S. cerevisiae; details: Saccharomyces cerevisiae
Procedure: as §1

2711 CnCYP51 OE CnCPR = assay: MIC80 determination, strain 2711; assay type: cell-based, S. cerevisiae; details: Saccharomyces cerevisiae
Procedure: as §1

Y433 OE CgCDR1 = assay: MIC80 determination, strain Y433; assay type: cell-based, S. cerevisiae; details: Saccharomyces cerevisiae
Procedure: as §1

MCF-10A cells = assay: Viability (CellTiter Blue) assay; assay type: cell-based, human; details: 48 h, 10 μM to 1 pM
Procedure: Human epithelial breast cells, MCF-10A, were routinely cultured in DMEM/F-12 (Fisher Scientific, Loughborough, UK) containing 5% heat-inactivated horse serum (ThermoFisher Scientific, UK), 20 ng/mL hEGF (Merck Life Science, Dorset, UK), 500 ng/mL hydrocortisone (Merck Life Science, Dorset, UK) and 10 μg/mL insulin (Merck Life Science, Dorset, UK) under tissue culture conditions (37 °C, 5% CO2 in a humidified incubator). Cells were passaged upon reaching confluency using 0.25% Trypsin/EDTA (Fisher Scientific, Loughborough, UK) for a maximum of 15 passages from defrosting. […].
Cells were seeded in 100 μL of complete medium per well in a black, flat-bottomed, 96-well tissue-culture-treated plate (Fisher Scientific, Loughborough, UK) at a density of 4000 cells/well and incubated under tissue culture conditions for 24 h. Cells were then treated by mixing in an additional 100 μL of drug/diluent control in complete medium to give final concentrations of 10 μM–1 pM. DMSO was used as a vehicle control, and as a positive toxic control, staurosporine was added at a final concentration of 10 μM. Cells were then incubated for 48 h under tissue culture conditions before the treatments were replaced with fresh media before performing the CellTiter Blue assay (Promega, Southampton, UK) was performed following the manufacturer's instructions. […]

Y2765 OE CauMDR1 = assay: MIC80 determination, strain Y2765; assay type: cell-based, S. cerevisiae; details: Saccharomyces cerevisiae
Procedure: as §1

Y2513 OE ScCYP51 Y140H = assay: MIC80 determination, strain Y2513; assay type: cell-based, S. cerevisiae; details: Saccharomyces cerevisiae, 48 h, pH 6.8
Procedure: as §1

Y2769 OE CauCYP51 K143R = assay: MIC80 determination, strain Y2769; assay type: cell-based, S. cerevisiae; details: Saccharomyces cerevisiae
Procedure: as §1

Y570 OE CaCDR1B = assay: MIC80 determination, strain Y570; assay type: cell-based, S. cerevisiae; details: Saccharomyces cerevisiae, 48 h, pH 6.8
Procedure: as §1

C. albicans = tested on: C. albicans; set-up: method as in number not given; details: ref number not given; cited from earlier work
[2] = tested on: Y2746 OE AfCYP51A AfCPR AfERG6; assay: MIC80 determination, strain Y2746; assay type: cell-based, S. cerevisiae; details: Saccharomyces cerevisiae
Procedure: as §1

Y71 SC5314 = assay: MIC80 determination, C. albicans clinical isolate Y71 SC5314; assay type: cell-based; details: Candida albicans; C. albicans clinical isolate Y71 SC5314; pH 7, 24 h
Procedure: as §1

Y1 = assay: MIC80 determination, C. albicans clinical isolate Y1; assay type: cell-based; details: Candida albicans, pH 7, 24 h
Procedure: as §1

Y610 FHB1 = assay: MIC80 determination, C. albicans clinical isolate Y610 FHB1; assay type: cell-based; details: Candida albicans; C. albicans clinical isolate Y610 FHB1 (weakly expresses CaCDR1); pH 7, 24 h
Procedure: as §1

CaCYP51 Y132H + K143R = CaCYP51 Y132H + K143R (Candida albicans, UniProt P10613, K143R/Y132H); details: footnote b; ref number not given; cited from earlier work
Sequence of CaCYP51 Y132H + K143R (P10613 whole entry Y132H/K143R): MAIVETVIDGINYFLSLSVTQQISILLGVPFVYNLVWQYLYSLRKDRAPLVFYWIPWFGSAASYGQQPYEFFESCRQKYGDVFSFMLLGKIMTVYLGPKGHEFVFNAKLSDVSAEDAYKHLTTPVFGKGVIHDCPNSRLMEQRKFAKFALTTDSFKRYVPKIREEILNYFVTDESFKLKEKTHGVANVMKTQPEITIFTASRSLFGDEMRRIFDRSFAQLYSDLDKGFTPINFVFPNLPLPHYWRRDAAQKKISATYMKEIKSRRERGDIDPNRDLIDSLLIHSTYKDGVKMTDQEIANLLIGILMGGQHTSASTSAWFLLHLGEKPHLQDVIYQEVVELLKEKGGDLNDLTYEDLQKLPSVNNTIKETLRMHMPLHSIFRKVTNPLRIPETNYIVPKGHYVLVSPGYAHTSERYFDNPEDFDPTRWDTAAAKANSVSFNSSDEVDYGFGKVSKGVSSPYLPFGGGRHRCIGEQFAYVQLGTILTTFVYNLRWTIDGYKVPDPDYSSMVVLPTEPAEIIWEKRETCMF

Sequence of CaCYP51 Y132F (P10613 whole entry Y132F): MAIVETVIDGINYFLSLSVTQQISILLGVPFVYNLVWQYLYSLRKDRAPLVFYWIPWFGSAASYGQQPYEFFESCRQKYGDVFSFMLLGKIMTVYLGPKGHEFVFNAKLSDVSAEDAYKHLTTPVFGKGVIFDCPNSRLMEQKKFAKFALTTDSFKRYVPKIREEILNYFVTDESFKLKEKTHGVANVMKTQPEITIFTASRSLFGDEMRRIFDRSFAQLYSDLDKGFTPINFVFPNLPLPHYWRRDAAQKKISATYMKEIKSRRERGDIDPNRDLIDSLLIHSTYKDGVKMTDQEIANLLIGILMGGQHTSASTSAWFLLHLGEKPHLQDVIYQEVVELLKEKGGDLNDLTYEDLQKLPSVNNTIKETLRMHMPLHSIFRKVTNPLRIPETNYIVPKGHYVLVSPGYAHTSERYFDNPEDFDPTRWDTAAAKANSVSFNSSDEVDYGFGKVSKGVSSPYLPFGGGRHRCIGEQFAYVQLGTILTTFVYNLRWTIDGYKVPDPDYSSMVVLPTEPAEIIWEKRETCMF

With `CC[C@@H]([C@H](C)O)n1ncn(-c2ccc(N3CCN(c4ccc(OC[C@@H]5CO[C@@](Cn6cncn6)(c6ccc(F)cc6F)C5)cc4)CC3)cc2)c1=O` [PCZ, posaconazole, reference compound] as the molecule, how does the MIC80 (Y525 OE CaMDR1a) read?
The MIC80 was 0.218 µM.

What about the MIC80 (Y2716 OE CpCYP51 Y132F) of the same molecule?
Its MIC80 is 0.135 ± 0.058 µM.

And the MIC80 [1]?
Its MIC80 is 0.07 ± 0.024 µM.

What about the MIC80 (Y2768 OE CauCYP51 Y132F) of the same molecule?
The MIC80 was 0.168 ± 0.006 µM.

And the MIC80 (Y2459 OE CaCYP51 CaCpr)?
The MIC80 was 0.22 ± 0.07 µM.

And the MIC80 (Y2651 OE CYP51 F5 RaCPR)?
Its MIC80 is 0.054 ± 0.011 µM.

What about the IC50 (CaCYP51 Y132F) of the same molecule?
The IC50 was 343 ± 20 nM.

And the MIC80 (Y2766 OE CauCDR1)?
Its MIC80 is 0.971 ± 0.049 µM.

What about the MIC80 (Y2301 OE ScCYP51 Y140F) of the same molecule?
The MIC80 was 0.191 ± 0.041 µM.

What about the MIC80 (Y2767 OE CauCYP51) of the same molecule?
Its MIC80 is 0.196 ± 0.022 µM.

And the MIC80 (Y2649 OE CYP51 F1 RaCPR)?
The MIC80 was 0.1 µM.

And the MIC80 (Y2374 OE CgCYP51)?
The MIC80 was 0.332 µM.

And the MIC80 (Y2300 OE ScCYP51)?
The MIC80 was 2 ± 0.05 µM.

And the MIC80 (Y611 FHB3)?
The MIC80 was 0.53 µM.

And the MIC80 (Y2411 Endog. ScCYP51)?
The MIC80 was 0.097 ± 0.04 µM.

What about the MIC80 (Y2721 OE CpCYP51) of the same molecule?
Its MIC80 is 0.122 ± 0.037 µM.

What about the MIC80 (2711 CnCYP51 OE CnCPR) of the same molecule?
The MIC80 was 0.035 ± 0.015 µM.

What about the MIC80 (Y433 OE CgCDR1) of the same molecule?
Its MIC80 is 23.8 µM.

What about the “cell viability (tolerance in words)” value (MCF-10A cells) of the same molecule?
Its value is “no difference observed”.

What about the MIC80 (Y2765 OE CauMDR1) of the same molecule?
Its MIC80 is 0.096 ± 0.003 µM.

What about the MIC80 (Y2513 OE ScCYP51 Y140H) of the same molecule?
Its MIC80 is 0.147 ± 0.057 µM.

What about the MIC80 (Y2769 OE CauCYP51 K143R) of the same molecule?
Its MIC80 is 0.117 ± 0.005 µM.

What about the MIC80 (Y570 OE CaCDR1B) of the same molecule?
Its MIC80 is over 25 µM.

And the MIC (C. albicans)?
The MIC was at most 0.03 µg/mL.

And the MIC80 [2]?
The MIC80 was 0.033 ± 0.014 µM.

What about the MIC80 (Y71 SC5314) of the same molecule?
Its MIC80 is 0.073 µM.

And the MIC80 (Y1)?
Its MIC80 is 0.07 µM.

What about the MIC80 (Y610 FHB1) of the same molecule?
Its MIC80 is 0.151 ± 0.016 µM.

What about the IC50 (CaCYP51 Y132H + K143R) of the same molecule?
Its IC50 is 196 ± 7 nM.
